Reference: patent US8445510B2, “Fused bicyclic kinase inhibitors” (OSI Pharmaceuticals, LLC, priority 2011, dated 2013)

Legend:
Aurora B = molecular target: T1, Aurora B (Homo sapiens, UniProt Q96GD4); test: Aurora B cell mechanistic assay (HT-29), phospho-Histone H3 (Ser10) ELISA; type: cell-based; conditions: HT-29 cell line; inhibition of phospho-Histone H3 (Ser10); at least duplicate experiments (italicized if single experiment); read-out: Aurora B mech IC50
T1 construct: HT-29 cells grown in complete growth media
Protocol: The cellular activity of the compounds of the present invention against Aurora B may be determined by the following procedure. HT-29 cells grown in complete growth media (McCoy's 5A, 10% FCS, 1% L-glutamine) were plated into wells of a 96 well tissue culture plate (Falcon 3072) at a cell density of 4×10^4 cells/0.09 ml media/well. Cells were subsequently incubated overnight in a 5% CO2 humidified 37° C. incubator. The following day 10 μl of a 10× stock of test compound serially diluted in media was added to the cells and incubated for 1 h at 37° C. at which time Calyculin A (Cell Signaling #9902) was added at a concentration of 100 nM and cells incubated for an additional 30 minutes in a 5% CO2 humidified 37° C. incubator. Media was then aspirated and cells lysed using a Triton based lysis buffer. Lysates were transferred to a pre-coated anti-Histone H3 antibody coated plate supplied by Cell Signaling in their PathScan phospho-Histone H3 (Ser10) ELISA kit (#7155). After an overnight incubation with lysate the ELISA was continued following the manufacturer's instructions. Signal was measured on a Wallac Victor plate reader at 450 nm. DMSO control treated cells served as 100% signal and an Aurora B kinase inhibitor served as 100% inhibition. The percent inhibition of phospho-Histone H3 (Ser10) was expressed as % control. IC50 values were calculated from the percent control data using a standard four-parameter model.
The IC50 values of exemplary compounds of the present invention determined in a Aurora B cell mechanistic assay using the HT-29 cell line according to the procedures described herein in at least duplicate experiments are abbreviated as follows and are shown in Table 4: A, IC50≦0.05 μM; B, 0.05 μM<IC50≦0.2 μM; C, 0.2 μM<IC50≦1 μM; D, IC50>1 μM; ND, not determined. If only data from single experiments are available, the abbreviations are italicized. The Example # of Table 4 corresponds to the compound example number as illustrated in the Examples section.

MKN45 cells = test: MKN45 cell proliferation assay (CellTiter-Glo); type: cell-based; conditions: Homo sapiens, MKN-45, 72 h; MKN45 cell line; 3 days incubation; at least duplicate experiments; read-out: Prolif. IC50

T1 sequence (Q96GD4 whole entry): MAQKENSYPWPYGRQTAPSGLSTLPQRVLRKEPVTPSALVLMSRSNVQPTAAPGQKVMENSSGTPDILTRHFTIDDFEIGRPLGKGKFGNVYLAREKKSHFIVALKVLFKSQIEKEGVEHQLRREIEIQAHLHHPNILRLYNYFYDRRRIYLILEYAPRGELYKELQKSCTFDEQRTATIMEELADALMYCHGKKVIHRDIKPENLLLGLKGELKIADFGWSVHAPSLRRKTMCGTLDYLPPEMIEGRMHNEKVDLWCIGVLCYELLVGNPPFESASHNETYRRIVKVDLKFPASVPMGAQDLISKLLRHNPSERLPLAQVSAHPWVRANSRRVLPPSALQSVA

SMILES	IC50 (Aurora B) [nM]	IC50 (MKN45 cells) [nM]
COc1ccc(F)c(Cl)c1[C@@H](C)c1c[nH]c2ncc(-c3cnn(C)c3C(N)=O)cc12 [Example 43, 4-{3-[(1S)-1-(2-Chloro-3-fluoro-6-methoxyphenyl)ethyl]-1H-pyrrolo[2,3-b]pyridin-5-yl}-1-methyl-1H-pyrazole-5-carboxamide]	> 1000	200 to 1000
COc1ccc(F)c(Cl)c1[C@@H](C)c1c[nH]c2ncc(-c3cn(C)nc3C(N)=O)cc12 [Example 39, 4-{3-[(1S)-1-(2-Chloro-3-fluoro-6-methoxyphenyl)ethyl]-1H-pyrrolo[2,3-b]pyridin-5-yl}-1-methyl-1H-pyrazole-3-carboxamide]	> 1000	50 to 200
COc1ccc(F)c(Cl)c1[C@@H](C)c1c[nH]c2ncc(-c3c(C)nn(CC(C)(C)O)c3C)cc12 [Example 5, 1-(4-{3-[(1S)-1-(2-Chloro-3-fluoro-6-methoxyphenyl)ethyl]-1H-pyrrolo[2,3-b]pyridin-5-yl}-3,5-dimethyl-1H-pyrazol-1-yl)-2-methylpropan-2-ol]	> 1000	50 to 200
Cc1c(-c2cnc3[nH]cc([C@H](C)c4c(OCC(F)(F)F)ccc(F)c4Cl)c3c2)cnn1[C@H]1CC[C@H](O)CC1 [Example 105, trans-4-[4-(3-{(1S)-1-[2-Chloro-3-fluoro-6-(2,2,2-trifluoroethoxy)-phenyl]ethyl}-1H-pyrrolo[2,3-b]pyridin-5-yl)-5-methyl-1H-pyrazol-1-yl]cyclohexanol]	50 to 200	≤ 50
COc1ccc(F)c(Cl)c1[C@@H](C)c1c[nH]c2ncc(-c3cnn(C)c3N)cc12 [Example 38, 4-{3-[(1S)-1-(2-Chloro-3-fluoro-6-methoxyphenyl)ethyl]-1H-pyrrolo[2,3-b]pyridin-5-yl}-1-methyl-1H-pyrazol-5-amine]	200 to 1000	≤ 50
Cc1c(-c2cnc3[nH]cc([C@H](C)c4c(OC(C)C)ccc(F)c4Cl)c3c2)cnn1[C@H]1CC[C@H](O)CC1 [Example 104, trans-4-[4-(3-{(1S)-1-[2-Chloro-3-fluoro-6-(propan-2-yloxy)phenyl]ethyl}-1H-pyrrolo[2,3-b]pyridin-5-yl)-5-methyl-1H-pyrazol-1-yl]cyclohexanol]	200 to 1000	≤ 50
Cc1c(-c2cnc3[nH]cc([C@H](C)c4c(OC(F)F)ccc(F)c4Cl)c3c2)cnn1[C@@H]1C[C@@H](O)[C@@H](O)C1 [Example 75, (1R,2S,4S)-4-[4-(3-{(1S)-1-[2-Chloro-6-(difluoromethoxy)-3-fluoro-phenyl]ethyl}-1H-pyrrolo[2,3-b]pyridin-5-yl)-5-methyl-1H-pyrazol-1-yl]cyclopentane-1,2-diol]	200 to 1000	≤ 50
COc1ccc(F)c(Cl)c1[C@@H](C)c1c[nH]c2ncc(-c3cn(C)nc3CN)cc12 [Example 50, 1-(4-{3-[(1S)-1-(2-Chloro-3-fluoro-6-methoxyphenyl)ethyl]-1H-pyrrolo[2,3-b]pyridin-5-yl}-1-methyl-1H-pyrazol-3-yl)methanamine]	200 to 1000	50 to 200
COc1ccc(F)c(Cl)c1[C@@H](C)c1c[nH]c2ncc(-c3cnn([C@H]4CC[C@@H](N(C)C)CC4)c3C)cc12 [Example 54, cis-4-(4-{3-[(1S)-1-(2-Chloro-3-fluoro-6-methoxyphenyl)ethyl]-1H-pyrrolo[2,3-b]pyridin-5-yl}-5-methyl-1H-pyrazol-1-yl)-N,N-dimethylcyclohexanamine]	200 to 1000	≤ 50
CCc1nn([C@H]2CC[C@H](O)CC2)cc1-c1cnc2[nH]cc([C@H](C)c3c(OC(F)F)ccc(F)c3Cl)c2c1 [Example 77, trans-4-[4-(3-{(1S)-1-[2-Chloro-6-(difluoromethoxy)-3-fluorophenyl]ethyl}-1H-pyrrolo[2,3-b]pyridin-5-yl)-3-ethyl-1H-pyrazol-1-yl]cyclohexanol]	200 to 1000	≤ 50
Cc1c(-c2cnc3[nH]cc([C@H](C)c4c(OC(F)F)ccc(F)c4Cl)c3c2)cnn1[C@H]1C[C@@](C)(O)C1 [Example 79, cis-3-[4-(3-{(1S)-1-[2-Chloro-6-(difluoromethoxy)-3-fluorophenyl]ethyl}-1H-pyrrolo[2,3-b]pyridin-5-yl)-5-methyl-1H-pyrazol-1-yl]-1-methylcyclobutanol]	> 1000	≤ 50
CCc1c(-c2cnc3[nH]cc([C@H](C)c4c(OC(F)F)ccc(F)c4Cl)c3c2)cnn1[C@H]1CC[C@H](O)CC1 [Example 78, trans-4-[4-(3-{(1S)-1-[2-Chloro-6-(difluoromethoxy)-3-fluorophenyl]ethyl}-1H-pyrrolo[2,3-b]pyridin-5-yl)-5-ethyl-1H-pyrazol-1-yl]cyclohexanol]	> 1000	≤ 50
COc1ccc(F)c(Cl)c1[C@@H](C)c1c[nH]c2ncc(-c3c(C)nn(C)c3C(N)=O)cc12 [Example 41, 4-{3-[(1S)-1-(2-Chloro-3-fluoro-6-methoxyphenyl)ethyl]-1H-pyrrolo[2,3-b]pyridin-5-yl}-1,3-dimethyl-1H-pyrazole-5-carboxamide]	> 1000	> 1000
COc1ccc(F)c(Cl)c1[C@@H](C)c1c[nH]c2ncc(-c3cnn([C@@H]4C[C@@H](O)[C@@H](O)C4)c3C)cc12 [Example 31, (1R,2S,4S)-4-(4-{3-[(1S)-1-(2-Chloro-3-fluoro-6-methoxyphenyl)ethyl]-1H-pyrrolo[2,3-b]pyridin-5-yl}-5-methyl-1H-pyrazol-1-yl)cyclopentane-1,2-diol]	> 1000	≤ 50
Cc1c(-c2cnc3[nH]cc([C@H](C)c4c(OC(F)F)ccc(F)c4Cl)c3c2)cnn1[C@H]1C[C@@H](O)C1 [Example 81, cis-3-[4-(3-{(1S)-1-[2-Chloro-6-(difluoromethoxy)-3-fluorophenyl]ethyl}-1H-pyrrolo[2,3-b]pyridin-5-yl)-5-methyl-1H-pyrazol-1-yl]cyclobutanol]	> 1000	≤ 50
COc1ccc(F)c(Cl)c1[C@@H](C)c1c[nH]c2ncc(-c3cnn(C[C@@H](O)CO)c3C(F)(F)F)cc12 [Example 35, (2R)-3-[4-{3-[(1S)-1-(2-Chloro-3-fluoro-6-methoxyphenyl)ethyl]-1H-pyrrolo[2,3-b]pyridin-5-yl}-5-(trifluoromethyl)-1H-pyrazol-1-yl]propane-1,2-diol]	> 1000	50 to 200
COc1ccc(F)c(Cl)c1[C@@H](C)c1c[nH]c2ncc(-c3cnn(CC(C)(C)O)c3C)cc12 [Example 8, 1-(4-{3-[(1S)-1-(2-Chloro-3-fluoro-6-methoxyphenyl)ethyl]-1H-pyrrolo[2,3-b]pyridin-5-yl}-5-methyl-1H-pyrazol-1-yl)-2-methylpropan-2-ol]	200 to 1000	≤ 50
[2H]C([2H])([2H])[C@H](c1c(OC)ccc(F)c1Cl)c1c[nH]c2ncc(-c3cnn([C@H]4CC[C@H](O)CC4)c3C)cc12 [Example 111, trans-4-(4-{3-[(1S)-1-(2-Chloro-3-fluoro-6-methoxyphenyl)(2,2,2-^2H3)ethyl]-1H-pyrrolo[2,3-b]pyridin-5-yl}-5-methyl-1H-pyrazol-1-yl)cyclohexanol]	> 1000	≤ 50
COc1ccc(F)c(Cl)c1[C@@H](C)c1c[nH]c2ncc(-c3cnn(C)c3OC)cc12 [Example 62, 3-[(1S)-1-(2-chloro-3-fluoro-6-methoxyphenyl)ethyl]-5-(5-methoxy-1-methyl-1H-pyrazol-4-yl)-1H-pyrrolo[2,3-b]pyridine]	> 1000	50 to 200
C[C@H](c1c(OC(F)F)ccc(F)c1Cl)c1c[nH]c2ncc(-c3cnn([C@H]4CC[C@H](O)CC4)c3F)cc12 [Example 84, trans-4-[4-(3-{(1S)-1-[2-Chloro-6-(difluoromethoxy)-3-fluorophenyl]ethyl}-1H-pyrrolo[2,3-b]pyridin-5-yl)-5-fluoro-1H-pyrazol-1-yl]cyclohexanol]	200 to 1000	≤ 50
COc1ccc(F)c(Cl)c1[C@@H](C)c1c[nH]c2ncc(-c3cnn(C)c3CO)cc12 [Example 44, (4-{3-[(1S)-1-(2-Chloro-3-fluoro-6-methoxyphenyl)ethyl]-1H-pyrrolo[2,3-b]pyridin-5-yl}-1-methyl-1H-pyrazol-5-yl)methanol]	> 1000	50 to 200
[2H]C([2H])([2H])Oc1ccc(F)c(Cl)c1[C@@H](C)c1c[nH]c2ncc(-c3cnn([C@H]4CC[C@H](O)CC4)c3C)cc12 [Example 107, trans-4-(4-{3-[(1S)-1-{2-Chloro-3-fluoro-6-[(^2H3)methyloxy]phenyl}ethyl]-1H-pyrrolo[2,3-b]pyridin-5-yl}-5-methyl-1H-pyrazol-1-yl)cyclohexanol]	> 1000	≤ 50
